According to patent US20190300882A1, “METHODS OF TREATING NEUROBLASTOMA AND REAGENTS THEREFOR” (GARVAN INSTITUTE OF MEDICAL RESEARCH, priority 2016, published 2019):

Legend:
Format in all cases: cell-based
[1] = test system: SHEP cells; assay: Primary functional miRNA mimic screen, CellTiter-Glo cell viability; conditions: miRNA mimic 25 nM alone, 144 hours post-transfection
Excerpt: Breast cancer cell lines (MDA-MB-231, MDA-MB-468, SK-BR-3; BT474) and prostate cancer cell lines (PC3, DU145) were obtained from American Type Culture Collection (ATCC). Neuroblastoma cell lines (KELLY, SHEP) were received from Children's Cancer Institute (CCIA). The KELLY cells were selected as a MYCN amplified neuroblastoma cell line and the SHEP cells were selected as a MYCN wild-type neuroblastoma cell line.
All breast and prostate cancer cell lines were cultivated in RPMI media supplemented with 10% FCS, HEPES, and insulin. The neuroblastoma cell lines, KELLY, SHEP, were grown in 10% FCS/RPMI and 10% FCS/DMEM, respectively.
(§1) Each of the cell lines were reverse transfected in 384-well plate format with 25 nM of a miRNA from the Dharmacon miRNA mimic or inhibitor libraries (version 16.0) using liquid-handling robot Calliper Sciclone ALH3000 according to the conditions described in Table 3. After 24 hours, media was changed using BioTek 406, and 144 hours post-transfection, cell viability was determined using CellTiter-Glo luminescent assay (Promega) at 1:2 dilution. Luminescence measurements were taken on the Synergy H4 high-throughput multimode microplate reader. All screens were performed in duplicates.
Raw viability was normalised to a nontargeting control (OTP) or mock wells, and death genes or controls inducing varying levels of death were used to monitor transfection efficiency and to define dynamic range in each screen (FIG. 1). To define screen hits, normalised viability scores were binned in the following manner: CV1 bin included candidates with viability >=0.8; CV2 bin included candidates with viability <0.8 and >0.5, and LC bin was assigned to candidates with normalised viability <=0.5. Only LC candidates were defined as screen hits.

[2] = test system: KELLY cells; assay: Secondary validation screen of lethal miRNAs, cell viability; conditions: miRNA mimic alone
Experimental: as §1
(§2) The secondary validation screens were performed in accordance with the genome-wide screens described in Example 1 and Example 2, respectively, with the exception that an additional MYCN-amplified neuroblastoma cell line (SK-N-DZ) was added to each screen.
(§3) Furthermore, five additional non-active miRNAs discovered to have no measureable effect across all treatment groups of the genome-wide screen (‘non-lethal’ miRNAs) were included as negative controls.

[3] = test system: SHEP cells; assay: as above; conditions: miRNA mimic alone
Experimental: as §1, §2, §3

[4] = test system: SK-N-DZ MYCN-amplified neuroblastoma cell line; assay: Secondary validation screen of lethal miRNAs, additional cell line, cell viability; conditions: miRNA mimic alone
Experimental: as §1, §2, §3

[5] = test system: KELLY cells; assay: Primary functional miRNA mimic screen, CellTiter-Glo cell viability; conditions: miRNA mimic 25 nM alone, 144 hours post-transfection
Excerpt: Breast cancer cell lines (MDA-MB-231, MDA-MB-468, SK-BR-3; BT474) and prostate cancer cell lines (PC3, DU145) were obtained from American Type Culture Collection (ATCC). Neuroblastoma cell lines (KELLY, SHEP) were received from Children's Cancer Institute (CCIA). The KELLY cells were selected as a MYCN amplified neuroblastoma cell line and the SHEP cells were selected as a MYCN wild-type neuroblastoma cell line. All breast and prostate cancer cell lines were cultivated in RPMI media supplemented with 10% FCS, HEPES, and insulin. […] Each of the cell lines were reverse transfected in 384-well plate format with 25 nM of a miRNA from the Dharmacon miRNA mimic or inhibitor libraries (version 16.0) using liquid-handling robot Calliper Sciclone ALH3000 according to the conditions described in Table 3. […] Luminescence measurements were taken on the Synergy H4 high-throughput multimode microplate reader. All screens were performed in duplicates. Raw viability was normalised to a nontargeting control (OTP) or mock wells, and death genes or controls inducing varying levels of death were used to monitor transfection efficiency and to define dynamic range in each screen (FIG. 1). To define screen hits, normalised viability scores were binned in the following manner: CV1 bin included candidates with viability >=0.8; […] Only LC candidates were defined as screen hits.

In the case of “hsa-miR-192-3p (CUGCCAAUUCCAUAGGUCACAG; chemistry not given here; listed as Homo sapiens)”, the “Primary screen Viability (% of control) SHEP” value [1] is reported as 43 % of control, the “Secondary screen Viability (% of control) KELLY” value [2] is reported as 54 % of control and the “Secondary screen Viability (% of control) SHEP” value [3] is reported as 49 % of control. The “Additional cell line Viability (% of control) SKNDZ” value [4] was 97 % of control and the “Primary screen Viability (% of control) KELLY” value [5] was 42 % of control.

For “hsa-miR-491-3p (guide CUUAUGCAAGAUUCCCUUCUAC; chemistry not given here; listed as Homo sapiens)”, the “Primary screen Viability (% of control) SHEP” value [1] was 26 % of control, the “Secondary screen Viability (% of control) KELLY” value [2] was 12 % of control and the “Secondary screen Viability (% of control) SHEP” value [3] was 34 % of control. The “Additional cell line Viability (% of control) SKNDZ” value [4] was 47 % of control and the “Primary screen Viability (% of control) KELLY” value [5] was 12 % of control.

In the case of “hsa-miR-634 (guide AACCAGCACCCCAACUUUGGAC; chemistry not given here; listed as Homo sapiens)”, the “Primary screen Viability (% of control) SHEP” value [1] is reported as 8 % of control, the “Secondary screen Viability (% of control) KELLY” value [2] is reported as 13 % of control and the “Secondary screen Viability (% of control) SHEP” value [3] is reported as 12 % of control. For the same substance, the “Additional cell line Viability (% of control) SKNDZ” value [4] was 41 % of control and the “Primary screen Viability (% of control) KELLY” value [5] was 7 % of control.

In the case of “hsa-miR-544a (guide AUUCUGCAUUUUUAGCAAGUUC; chemistry not given here; listed as Homo sapiens)”, the “Primary screen Viability (% of control) SHEP” value [1] is reported as 32 % of control, the “Secondary screen Viability (% of control) KELLY” value [2] is reported as 17 % of control and the “Secondary screen Viability (% of control) SHEP” value [3] is reported as 61 % of control. For the same substance, the “Additional cell line Viability (% of control) SKNDZ” value [4] was 59 % of control and the “Primary screen Viability (% of control) KELLY” value [5] was 7 % of control.

In the case of “hsa-miR-542-3p (guide UGUGACAGAUUGAUAACUGAAA; chemistry not given here; listed as Homo sapiens)”, the “Primary screen Viability (% of control) SHEP” value [1] is reported as 29 % of control, the “Secondary screen Viability (% of control) KELLY” value [2] is reported as 20 % of control and the “Secondary screen Viability (% of control) SHEP” value [3] is reported as 38 % of control. The “Additional cell line Viability (% of control) SKNDZ” value [4] was 28 % of control and the “Primary screen Viability (% of control) KELLY” value [5] was 6 % of control.

For “hsa-miR-103a-2-5p (AGCUUCUUUACAGUGCUGCCUUG; chemistry not given here; listed as Homo sapiens)”, the “Primary screen Viability (% of control) SHEP” value [1] was 46 % of control, the “Secondary screen Viability (% of control) KELLY” value [2] was 39 % of control and the “Secondary screen Viability (% of control) SHEP” value [3] was 56 % of control. The “Additional cell line Viability (% of control) SKNDZ” value [4] was 52 % of control and the “Primary screen Viability (% of control) KELLY” value [5] was 26 % of control.
